# Measured values as given in the Kinase Knowledgebase extract (Sharma et al. 2016).
# Experiments:
# [1] = target: EGFR (Human), P00533 [T790M/L858R]; conditions: baf3
# [2] = target: EGFR (Human), P00533 [Assessment of EGFR-Del T790M Dependent Cell Proliferation in BaF3 Cells]
# [3] = target: EGFR (human) (UniProt P00533)
# [4] = target: EGFR (Human), P00533 [T790M/L858R]
# [5] = target: EGFR (human), P00533 [L858R]
# EGFR (human), P00533 [L858R], sequence (P00533 whole entry L858R, looked up): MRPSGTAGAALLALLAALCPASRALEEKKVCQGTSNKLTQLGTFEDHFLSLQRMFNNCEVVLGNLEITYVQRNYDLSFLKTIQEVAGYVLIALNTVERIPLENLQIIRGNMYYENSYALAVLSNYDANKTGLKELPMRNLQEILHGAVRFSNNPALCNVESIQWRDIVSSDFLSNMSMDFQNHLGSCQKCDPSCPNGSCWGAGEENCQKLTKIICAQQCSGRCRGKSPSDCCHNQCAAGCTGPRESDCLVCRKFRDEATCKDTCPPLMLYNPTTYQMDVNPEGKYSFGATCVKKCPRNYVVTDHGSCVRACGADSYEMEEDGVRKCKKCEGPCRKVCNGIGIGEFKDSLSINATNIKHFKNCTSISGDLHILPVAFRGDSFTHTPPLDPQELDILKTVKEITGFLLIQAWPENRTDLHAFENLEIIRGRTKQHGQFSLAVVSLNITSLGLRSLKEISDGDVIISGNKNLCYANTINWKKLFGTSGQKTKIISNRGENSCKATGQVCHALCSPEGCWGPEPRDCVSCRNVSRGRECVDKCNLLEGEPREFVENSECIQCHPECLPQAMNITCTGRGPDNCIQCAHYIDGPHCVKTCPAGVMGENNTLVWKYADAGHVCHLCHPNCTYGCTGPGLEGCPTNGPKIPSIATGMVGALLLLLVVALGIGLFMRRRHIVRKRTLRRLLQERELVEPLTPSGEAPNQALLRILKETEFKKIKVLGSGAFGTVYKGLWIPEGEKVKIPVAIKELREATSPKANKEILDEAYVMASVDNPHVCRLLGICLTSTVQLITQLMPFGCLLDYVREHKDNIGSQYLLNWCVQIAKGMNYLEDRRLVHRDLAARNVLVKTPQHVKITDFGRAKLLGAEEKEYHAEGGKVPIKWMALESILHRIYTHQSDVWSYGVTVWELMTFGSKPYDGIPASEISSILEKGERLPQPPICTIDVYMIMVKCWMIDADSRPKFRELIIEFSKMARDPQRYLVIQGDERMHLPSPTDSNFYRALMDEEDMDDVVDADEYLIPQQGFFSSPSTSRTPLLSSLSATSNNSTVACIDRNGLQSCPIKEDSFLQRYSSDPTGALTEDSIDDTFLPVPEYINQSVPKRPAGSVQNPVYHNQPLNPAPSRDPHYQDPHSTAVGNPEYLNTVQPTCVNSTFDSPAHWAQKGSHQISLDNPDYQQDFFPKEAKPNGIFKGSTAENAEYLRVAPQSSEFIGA
# EGFR (Human), P00533 [Assessment of EGFR-Del T790M Dependent Cell Proliferation in BaF3 Cells], sequence (P00533 whole entry, looked up, stated change not applied): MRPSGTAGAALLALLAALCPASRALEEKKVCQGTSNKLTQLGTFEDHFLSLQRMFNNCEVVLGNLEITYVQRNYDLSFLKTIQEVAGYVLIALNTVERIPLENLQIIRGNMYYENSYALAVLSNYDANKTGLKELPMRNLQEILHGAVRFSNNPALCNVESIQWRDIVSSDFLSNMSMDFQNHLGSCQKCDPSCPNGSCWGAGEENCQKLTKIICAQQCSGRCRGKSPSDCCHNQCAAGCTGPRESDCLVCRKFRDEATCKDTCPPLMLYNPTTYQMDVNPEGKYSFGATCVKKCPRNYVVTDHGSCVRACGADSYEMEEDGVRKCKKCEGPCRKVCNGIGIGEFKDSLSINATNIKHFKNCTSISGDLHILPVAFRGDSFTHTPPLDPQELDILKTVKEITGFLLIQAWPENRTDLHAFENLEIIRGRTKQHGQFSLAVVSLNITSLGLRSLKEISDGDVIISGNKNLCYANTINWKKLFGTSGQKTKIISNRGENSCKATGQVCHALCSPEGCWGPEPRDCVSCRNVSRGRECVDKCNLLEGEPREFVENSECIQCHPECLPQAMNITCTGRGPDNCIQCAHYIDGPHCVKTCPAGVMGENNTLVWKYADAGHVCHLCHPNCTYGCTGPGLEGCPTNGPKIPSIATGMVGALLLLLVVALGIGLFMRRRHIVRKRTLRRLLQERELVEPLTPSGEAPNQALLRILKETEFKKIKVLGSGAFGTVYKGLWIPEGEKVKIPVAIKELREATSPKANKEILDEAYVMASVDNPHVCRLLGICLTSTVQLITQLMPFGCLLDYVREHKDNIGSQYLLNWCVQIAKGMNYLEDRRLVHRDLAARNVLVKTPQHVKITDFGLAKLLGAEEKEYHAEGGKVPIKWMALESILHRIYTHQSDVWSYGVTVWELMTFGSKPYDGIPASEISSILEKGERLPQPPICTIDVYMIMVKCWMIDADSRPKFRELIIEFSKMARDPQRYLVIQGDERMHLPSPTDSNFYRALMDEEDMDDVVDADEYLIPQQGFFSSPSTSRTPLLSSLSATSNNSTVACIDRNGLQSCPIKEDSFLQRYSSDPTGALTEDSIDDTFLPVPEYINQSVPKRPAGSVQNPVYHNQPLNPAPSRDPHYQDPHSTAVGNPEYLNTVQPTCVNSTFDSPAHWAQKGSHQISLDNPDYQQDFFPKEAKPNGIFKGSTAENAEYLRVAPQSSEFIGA
# EGFR (human), sequence (P00533 whole entry, looked up): as the sequence (P00533 whole entry, looked up, stated change not applied) above
# EGFR (Human), P00533 [T790M/L858R], sequence (P00533 whole entry T790M/L858R, looked up): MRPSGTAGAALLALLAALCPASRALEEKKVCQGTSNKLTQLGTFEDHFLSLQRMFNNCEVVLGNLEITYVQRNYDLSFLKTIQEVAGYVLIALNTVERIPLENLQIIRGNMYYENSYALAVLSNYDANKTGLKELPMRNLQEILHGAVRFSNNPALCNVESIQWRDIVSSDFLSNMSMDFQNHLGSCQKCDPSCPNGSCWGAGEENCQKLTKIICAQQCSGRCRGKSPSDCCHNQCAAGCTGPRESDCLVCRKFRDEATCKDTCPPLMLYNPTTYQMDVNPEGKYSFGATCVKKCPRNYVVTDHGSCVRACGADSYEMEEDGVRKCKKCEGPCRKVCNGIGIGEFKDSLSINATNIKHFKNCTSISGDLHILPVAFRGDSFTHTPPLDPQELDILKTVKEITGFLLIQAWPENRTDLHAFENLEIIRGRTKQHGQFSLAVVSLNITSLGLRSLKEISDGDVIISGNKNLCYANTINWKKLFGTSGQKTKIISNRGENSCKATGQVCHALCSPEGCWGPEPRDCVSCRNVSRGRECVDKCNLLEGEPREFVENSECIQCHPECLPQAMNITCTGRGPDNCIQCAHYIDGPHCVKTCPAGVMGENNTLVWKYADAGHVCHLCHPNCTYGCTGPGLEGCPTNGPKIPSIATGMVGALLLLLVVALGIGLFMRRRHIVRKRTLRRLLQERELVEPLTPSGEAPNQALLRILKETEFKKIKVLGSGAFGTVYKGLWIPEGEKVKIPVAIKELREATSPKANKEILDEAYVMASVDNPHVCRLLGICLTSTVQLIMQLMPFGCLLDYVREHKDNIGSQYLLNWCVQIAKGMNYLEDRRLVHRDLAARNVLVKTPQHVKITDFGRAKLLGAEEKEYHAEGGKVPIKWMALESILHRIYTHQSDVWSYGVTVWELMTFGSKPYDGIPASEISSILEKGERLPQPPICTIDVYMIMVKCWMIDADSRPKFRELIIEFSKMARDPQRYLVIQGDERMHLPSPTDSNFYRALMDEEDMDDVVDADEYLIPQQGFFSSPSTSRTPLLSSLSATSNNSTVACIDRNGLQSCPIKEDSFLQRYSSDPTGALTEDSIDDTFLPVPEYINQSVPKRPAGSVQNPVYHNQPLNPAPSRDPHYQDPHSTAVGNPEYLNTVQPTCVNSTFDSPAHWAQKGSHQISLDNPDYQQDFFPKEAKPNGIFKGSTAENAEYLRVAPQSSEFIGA
SMILES,IC50 [1] [nM],IC50 [2] [nM],IC50 [3] [nM],IC50 [4] [nM],IC50 [5] [nM]
C=CC(=O)Nc1cc(Nc2ncc(Cl)c(Nc3ccccc3P(C)(C)=O)n2)c(OC)cc1N1CCN(C2CCN(C)CC2)CC1,101 to 250,50 to 100,< 50,< 50,< 50
C=CC(=O)Nc1cc(Nc2ncc(Cl)c(Nc3ccccc3P(C)(C)=O)n2)c(OC)cc1OCCCN1CCOCC1,101 to 250,101 to 250,101 to 250,< 50,< 50
C=CC(=O)Nc1cc(Nc2ncc(Cl)c(Nc3ccccc3P(C)(C)=O)n2)c(OC)cc1C#CCN(C)CC,< 50,< 50,< 50,< 50,< 50
COc1cc(C)c(NC(=O)CCl)cc1Nc1ncc(Cl)c(Nc2ccccc2P(C)(C)=O)n1,< 50,< 50,< 50,< 50,< 50
C=CC(=O)Nc1cc(Nc2ncc(Cl)c(Nc3ccccc3P(C)(C)=O)n2)c(CC)cc1C#CCN(C)C,< 50,< 50,< 50,< 50,< 50
C=C(CN1CCN(C)CC1)C(=O)Nc1ccc(OC)c(Nc2ncc(Cl)c(Nc3ccccc3P(C)(C)=O)n2)c1,< 50,< 50,< 50,< 50,< 50
C=CC(=O)Nc1cc(Nc2ncc(C3CC3)c(Nc3ccccc3P(C)(C)=O)n2)c(OC)cc1N(C)CCN(CC)CC,< 50,< 50,< 50,< 50,< 50
COCC#CC(=O)Nc1cc(Nc2ncc(Cl)c(Nc3ccccc3P(C)(C)=O)n2)c(OC)cc1N1CCOCC1,< 50,< 50,< 50,< 50,< 50
COc1ccc(NC(=O)/C=C/CN2CCCCC2)cc1Nc1ncc(Cl)c(Nc2ccccc2P(C)(C)=O)n1,< 50,< 50,< 50,< 50,< 50
C=C(CN1CCN(C(C)C)CC1)C(=O)Nc1ccc(OC)c(Nc2ncc(Cl)c(Nc3ccccc3P(C)(C)=O)n2)c1,< 50,< 50,50 to 100,< 50,< 50
CC#CC(=O)Nc1cc(Nc2ncc(Cl)c(Nc3ccccc3P(C)(C)=O)n2)c(OC)cc1N1CCC(N2CCN(C)CC2)CC1,< 50,< 50,50 to 100,< 50,< 50
C=CC(=O)Nc1ccc(OC)c(Nc2ncc(Cl)c(Nc3ccc(OCCCN(C)C)cc3P(C)(C)=O)n2)c1,< 50,< 50,< 50,< 50,< 50
C=CC(=O)Nc1cc(Nc2ncc(Cl)c(Nc3ccccc3P(C)(C)=O)n2)c(OC)cc1C,< 50,< 50,< 50,< 50,< 50
C=CC(=O)Nc1cc(Nc2ncc(Cl)c(Nc3ccccc3P(C)(C)=O)n2)c(OC)cc1N1CCC(N2CCCC2)C1 (stereo not given),< 50,< 50,< 50,< 50,< 50
C=CC(=O)Nc1ccc(OC)c(Nc2ncc(Cl)c(Nc3ccc(OCCN4CCCCC4)cc3P(C)(C)=O)n2)c1,< 50,< 50,< 50,< 50,< 50
COc1cc(F)c(NC(=O)C#CCCN2CCCCC2)cc1Nc1ncc(Cl)c(Nc2ccccc2P(C)(C)=O)n1,< 50,< 50,< 50,< 50,< 50
C=CC(=O)Nc1cc(Nc2ncc(Cl)c(Nc3ccccc3P(C)(C)=O)n2)c(OC)cc1C#CCN(C)CCOC,< 50,< 50,< 50,< 50,< 50
C=C(CN1CCN(CCO)CC1)C(=O)Nc1ccc(OC)c(Nc2ncc(Cl)c(Nc3ccccc3P(C)(C)=O)n2)c1,< 50,< 50,< 50,< 50,< 50
C=C(C)C(=O)Nc1cc(Nc2ncc(Cl)c(Nc3ccccc3P(C)(C)=O)n2)c(OC)cc1N1CC[C@@H](N(C)C)C1,< 50,< 50,101 to 250,< 50,< 50
C=CC(=O)Nc1cc(Nc2ncc(Cl)c(Nc3ccc(OCCN4CCCC4)cc3P(C)(C)=O)n2)c(OC)cc1F,< 50,< 50,< 50,< 50,< 50
C=C(CN1CCN(S(C)(=O)=O)CC1)C(=O)Nc1ccc(OC)c(Nc2ncc(Cl)c(Nc3ccccc3P(C)(C)=O)n2)c1,< 50,< 50,< 50,< 50,< 50
C=CC(=O)Nc1cc(Nc2ncc(Cl)c(Nc3ccccc3P(C)(C)=O)n2)c(OC)cc1C#CCN1CCCC1,< 50,< 50,< 50,< 50,< 50
COc1ccc(NC(=O)C#CCN(C)C)cc1Nc1ncc(Cl)c(Nc2ccccc2P(C)(C)=O)n1,< 50,< 50,< 50,< 50,< 50
COc1ccc(NC(=O)CCl)cc1Nc1ncc(Cl)c(Nc2ccccc2P(C)(C)=O)n1,< 50,< 50,< 50,< 50,< 50
C=CC(=O)Nc1ccc(OC)c(Nc2ncc(Cl)c(Nc3ccc(OC4CCOC4)cc3P(C)(C)=O)n2)c1 (stereo not given),50 to 100,< 50,< 50,< 50,< 50
C=CC(=O)Nc1cc(Nc2ncc(Cl)c(Nc3ccccc3P(C)(C)=O)n2)c(OC)cc1OCCN1CCCCC1,< 50,< 50,< 50,< 50,< 50
C=CC(=O)Nc1cc(Nc2ncc(Cl)c(Nc3ccccc3P(C)(C)=O)n2)c(OC)cc1N1CCCN(C)CC1,< 50,< 50,< 50,< 50,< 50
C=CC(=O)Nc1cc(Nc2ncc(Cl)c(Nc3ccccc3P(C)(C)=O)n2)c(OC)cc1N1CCC(N2CCCCC2)C1 (stereo not given),< 50,< 50,< 50,< 50,< 50
C=CC(=O)Nc1ccc(Cl)c(Nc2ncc(Cl)c(Nc3ccccc3P(C)(C)=O)n2)c1,< 50,< 50,< 50,< 50,< 50
C=CC(=O)Nc1cc(Nc2ncc(Cl)c(Nc3ccccc3P(C)(C)=O)n2)c(OC)cc1C#CCN1CCCCC1,< 50,< 50,< 50,< 50,< 50
